Results as given in patent US6855735B2, “Ketamine treatment of restless legs syndrome” (Temple University of the Commonwealth System of Higher …, priority 2002, dated 2005).
Values joined by “and” are separate entries in the source; they are usually repeats but may differ in a detail not shown here. Equal entries are not always repeated.

Key:
patients with RLS [1] = test: Case reports: oral ketamine in patients with RLS (Examples 1-6); type: in vivo, human; details: for earlier treatment / earlier treatment of back pain, neurogenic claudication and RLS: before ketamine
Description: A patient presented with a history of back pain, neurogenic claudication, and RLS. Treatment with the dopaminergic agonist, pergolide and oxycodone had been ineffective. In addition to RLS, the patient's past history included prior spinal surgery, insulin-dependent diabetes mellitus, sleep apnea, and congestive heart failure. Their family history was positive for RLS.
The patient was prescribed amitriptyline 25 mg at bedtime and gabapentin 300 mg three times daily in addition to their other medications.
After consenting to the evaluation of single dose efficacy of oral ketamine, the patient received 30 mg of ketamine mixed in 50 cc (or ml) of water. After 20 minutes of observation, the patient noted that their VAS score had improved to 2/10.
A patient with a history of chronic lower back pain, spinal stenosis, scoliosis, and RLS complained of worsening neurogenic claudication. Their VAS was 7/10.
The patient was then treated with 50 mg of oral ketamine.
A patient presented with a history of cardiac transplant, on immune suppressive medication, could not be treated with steroids for with spinal stenosis, neurogenic claudication, and RLS.
A patient presented with a history of multiple back surgeries and depression. […] Opioids were restarted to control the return of the patient's back pain.
A patient presented with a history of a renal transplant with documented lumbar radiculopathy and severe RLS on immunosuppressive treatment. The RLS symptoms were so severe that the patient could not keep their legs still at their initial office visit. […] While the RLS remitted during 4 months of treatment with 25 mg of ketamine daily, opioids were added to the treatment for pain control.
A dialysis patient presented with a history of failed back surgery, spinal stenosis and severe leg pain which responded to treatment with methadone but maintained severe RLS where the patient was not able to sleep more than 2 hours/night.

NMDA receptor = details: primary metabolite of oral ketamine; cited from earlier work
[2] = cited from earlier work
[3] = Serum levels of ketamine in patients treated with low doses of oral ketamine; type: in vivo, human
Description: Also, it is suitable that the dose of ketamine administered is less than the dose generally administered for alleviation of pain. For example, since only about 20% of an oral dose of ketamine is absorbed, the successful treatment of a patient with 2 mg of ketamine for RLS over a 24 hour period would equal less than 0.001 mg/kg/hour. At these doses, the threshold serum level for pyschotomimetic side effects (on the order of 50 ng/ml) is not reached. Moreover, the threshold serum level for pain relief (on the order of 200 ng/ml) is also not approached. […] Thus, the serum levels at which oral ketamine acts to relieve RLS are substanitially lower than those reported for pain relief. Treatment with low dosages of oral ketamine provides relief for subjects suffering from or affected by RLS by alleviating symptoms associated with RLS, and avoids the side effects generally encountered in the use of ketamine for the treatment of conscious patients and/or other therapies for RLS described above.
(§1) The patients, shown in Examples 7-23, were treated with doses of liquid oral ketamine or oral ketamine in tablet form. There were no patients who had serum levels of ketamine measured that reached the levels reported for therapeutic analgesic effect of ketamine, i.e., 200 ng/ml.

patients with RLS [4] = test: Patients treated with doses of oral ketamine (Examples 7-23, Table); type: in vivo, human
Description: In the Table shown below, patients were treated with doses of oral ketamine.
as §1

[5] = Example 1, amitriptyline 25 mg at bedtime and gabapentin 300 mg three times daily together, a month later
[6] = Example 3, oral 20 mg at bedtime
[7] = one patient per row (Examples 7-23), oral ketamine 10-100 mg/24 hours (col I), treatment 1-8 months (col G)

## CN(C)CCC=C1c2ccccc2CCc2ccccc21 [amitriptyline]
Patients with RLS [1]; [5]
  symptoms: no improvement in their symptoms
  verbal analog pain score (VAS): 6/10

## C=C[C@H]1C[N@@]2CC[C@H]1C[C@H]2[C@H](O)c1ccnc2ccc(OC)cc12 [quinine]
Patients with RLS [1]; Example 2
  earlier treatment: without success

## CCCN1C[C@H](CSC)C[C@@H]2c3cccc4[nH]cc(c34)C[C@H]21 [pergolide]
Patients with RLS [1]; Example 1
  earlier treatment of back pain, neurogenic claudication and RLS: ineffective

## NC1(c2ccccc2Cl)CCCCC1=O (centres unmarked) [norketamine]
NMDA receptor
  potency relative to ketamine: one-third to one-fifth

## COc1cccc(C2(O)CCCCC2CN(C)C)c1 (centres unmarked) [tramadol]
Patients with RLS [1]; Example 2
  earlier treatment: without success

## CS(=O)(=O)c1ccc(C2=C(c3ccccc3)C(=O)OC2)cc1 [rofecoxib]
Patients with RLS [1]; Example 2
  earlier treatment: without success

## COc1ccc2c3c1O[C@H]1C(=O)CC[C@@]4(O)[C@@H](C2)N(C)CC[C@]314 [oxycodone]
Patients with RLS [1]; Example 1
  earlier treatment of back pain, neurogenic claudication and RLS: ineffective

## NCC1(CC(=O)O)CCCCC1 [gabapentin]
Patients with RLS [1]; [5]
  symptoms: no improvement in their symptoms
  verbal analog pain score (VAS): 6/10
Patients with RLS [1]; Example 2
  earlier treatment: without success

## CCC(=O)C(CC(C)N(C)C)(c1ccccc1)c1ccccc1 (centres unmarked) [methadone]
Patients with RLS [1]; Example 6, dialysis patient, severe RLS maintained
  severe leg pain: responded

## CNC1(c2ccccc2Cl)CCCCC1=O (centres unmarked) [ketamine, (2-o-chlorophenyl)-2-(methylamino)-cyclohexanone]
[2]; in vivo
  threshold serum level for pain relief: ~200 ng/mL
[2]; oral
  fraction of an oral dose absorbed: about 20%
[3]; patients of Examples 7-23 who had serum levels measured, liquid or tablet oral ketamine
  serum levels of ketamine: < 200 ng/mL
[3]; patients treated with low doses of oral ketamine for RLS, commercially available tests
  serum levels of ketamine: not to have detectable serum levels
Patients with RLS [1]; Example 1, person, single oral dose 30 mg ketamine in 50 cc water, after 20 minutes, VAS before 6/10
  verbal analog pain score (VAS): 2/10
Patients with RLS [1]; Example 1, oral 30 mg twice a day for 6 months
  sleep and RLS: improvement in sleep and RLS
Patients with RLS [1]; Example 1, single oral dose 30 mg
  side effects after single dose: no dizziness, or other distressing symptoms
Patients with RLS [1]; Example 2, person, 50 mg oral ketamine, within 15 minutes, VAS before 7/10
  VAS: 2/10
Patients with RLS [1]; Example 2, 50 mg oral ketamine, within 15 minutes
  walking: subjective improvement in walking
Patients with RLS [1]; Example 2, oral 40 mg twice a day, a month following the trial
  sleep and RLS symptoms: significant improvement in their sleep and RLS symptoms
Patients with RLS [1]; [6]
  pain relief: no pain relief
  side effects: psychotomimetic side effects
Patients with RLS [1]; Example 3, oral 20 mg at bedtime, persisted after ketamine was stopped
  RLS: resolution of RLS
Patients with RLS [1]; Example 4, oral daily 25 mg
  RLS symptoms and sleep: lessened RLS symptoms and improved sleep
Patients with RLS [1]; Example 5, renal transplant patient, oral daily 10 mg
  pain and RLS: pain relief and resolution of RLS
Patients with RLS [1]; Example 5, 25 mg daily, 4 months of treatment
  RLS: RLS remitted
Patients with RLS [1]; Example 6, dialysis patient, 2 mg oral at bedtime
  reduction of RLS symptoms: more than 50%
Patients with RLS [1]; Example 6, dialysis patient, 20 mg daily oral
  tolerability (psychotomimetic effects): could not tolerate
Patients with RLS [1]; Example 6, 2 mg oral at bedtime
  psychotomimetic side effects: no psychotomimetic side effects
Patients with RLS [1]; Example 6, 2 mg oral at bedtime, before not more than 2 hours/night
  sleep duration: more than 4.5 hrs./night
Patients with RLS [4]; [7]
  F = VAS or visual analog scale for pain/walking ability (improvement): 80% (4×) and 60% (5×) and 90% and 70% (4×) and 50% (2×) and 40%
  J = complications: No (14×) and Yes (2×) and Rash
Patients with RLS [4]; patients of Examples 7-23, low ketamine dosage
  RLS symptoms: improved related limb sensations, motor restlessness and insomnia
